# Reference: patent US9187465B2, “Oxazole tyrosine kinase inhibitors” (Sareum Limited, priority 2007, dated 2015)
# Legend:
# Assay type in all cases: biochemical
# human FLT3 = biological target: T1, human FLT3 (Homo sapiens, UniProt P36888); assay: FLT3 kinase assay (DELFIA enzyme inhibition)
# T1 construct: a construct expressing the human FLT3 (564-993) with an amino terminal GST tag; host or cells: Sf9 insect cells (baculovirus)
# T1 sequence (P36888 564-993): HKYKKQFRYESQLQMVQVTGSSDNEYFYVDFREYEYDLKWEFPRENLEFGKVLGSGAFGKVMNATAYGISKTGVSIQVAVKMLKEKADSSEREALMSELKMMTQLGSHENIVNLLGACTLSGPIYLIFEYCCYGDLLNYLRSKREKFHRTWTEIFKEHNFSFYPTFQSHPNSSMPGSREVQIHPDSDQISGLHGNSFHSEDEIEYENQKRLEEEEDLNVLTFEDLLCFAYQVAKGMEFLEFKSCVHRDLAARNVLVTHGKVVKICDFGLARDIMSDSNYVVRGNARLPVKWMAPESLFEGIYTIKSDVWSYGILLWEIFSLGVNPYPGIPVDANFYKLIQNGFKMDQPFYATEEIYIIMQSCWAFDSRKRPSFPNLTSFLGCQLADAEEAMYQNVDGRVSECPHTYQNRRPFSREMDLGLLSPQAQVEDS
# In short: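 GST-tagged human FLT3 (564-993), expressed in sf9 cells, phosphorylated a biotinylated Gastrin Precursor (Tyr 87)-derived peptide for 30 min at room temperature before EDTA stop. The captured peptide was detected by Eu-labelled anti-phosphotyrosine DELFIA time-resolved fluorescence. IC50 was derived from % inhibition curves.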
# human Aurora A = biological target: T2, human Aurora A (Homo sapiens, UniProt O14965); assay: Aurora A kinase assay (DELFIA enzyme inhibition); conditions: read-out: Aurora A IC50
# T2 construct: Histidine tag (N); host or cells: Sf9 insect cells (baculovirus)
# T2 sequence (O14965 1-403): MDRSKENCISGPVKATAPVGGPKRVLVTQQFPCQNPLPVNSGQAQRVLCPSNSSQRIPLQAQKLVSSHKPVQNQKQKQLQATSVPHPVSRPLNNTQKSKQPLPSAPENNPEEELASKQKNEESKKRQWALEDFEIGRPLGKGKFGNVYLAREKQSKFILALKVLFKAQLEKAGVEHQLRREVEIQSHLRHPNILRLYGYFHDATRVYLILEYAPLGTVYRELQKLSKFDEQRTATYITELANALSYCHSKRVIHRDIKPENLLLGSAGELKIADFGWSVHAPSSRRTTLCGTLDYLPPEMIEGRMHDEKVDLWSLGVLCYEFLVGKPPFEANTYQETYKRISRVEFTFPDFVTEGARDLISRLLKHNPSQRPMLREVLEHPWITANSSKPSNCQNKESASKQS
# In short: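 DELFIA read-out (time-resolved Eu fluorescence, 620 nm emission) after Neutravidin capture of biotinylated peptide substrate and antibody detection. Reaction: Ni-agarose-purified Aurora A, 30 min at room temperature, stopped with 100 mM EDTA.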
# human FLT4 = biological target: T3, human FLT4 (Homo sapiens, UniProt P35916); assay: FLT4 kinase assay (DELFIA enzyme inhibition); conditions: read-out: FLT4 IC50
# T3 construct: a construct expressing the human FLT4 (789-1207) with an amino terminal GST tag; host or cells: Sf9 insect cells (baculovirus)
# In short: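 GST-tagged human FLT4 (789-1207) from Sf9 cells phosphorylates a biotinylated MET (Tyr1253)-derived peptide for 30 min at room temperature, stopped with EDTA. Phosphopeptide is captured on Neutravidin and detected with Eu-labelled anti-phosphotyrosine antibody by time-resolved fluorescence; IC50 from % inhibition curves.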
# T3 sequence (P35916 789-1207): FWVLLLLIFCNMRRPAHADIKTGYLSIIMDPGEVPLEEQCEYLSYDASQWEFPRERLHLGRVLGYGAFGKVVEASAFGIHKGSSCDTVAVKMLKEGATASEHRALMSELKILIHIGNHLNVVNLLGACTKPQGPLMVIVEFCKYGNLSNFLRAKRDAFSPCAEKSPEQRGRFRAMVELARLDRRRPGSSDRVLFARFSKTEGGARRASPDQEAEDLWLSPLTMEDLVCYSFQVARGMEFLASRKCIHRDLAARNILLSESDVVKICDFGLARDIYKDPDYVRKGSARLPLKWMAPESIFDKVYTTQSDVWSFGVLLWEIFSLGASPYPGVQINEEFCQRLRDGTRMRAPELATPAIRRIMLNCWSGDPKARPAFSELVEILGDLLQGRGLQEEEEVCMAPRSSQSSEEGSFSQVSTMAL
Compound,IC50 (human FLT3) [µM],IC50 (human Aurora A) [µM],IC50 (human FLT4) [µM]
"NC(=O)c1nc(-c2ccccc2F)oc1-c1ccc(OCCN2CCCCC2)cc1 [Example F-26, 2-(2-fluorophenyl)-5-(4-(2-(piperidin-1-yl)ethoxy)phenyl)oxazole-4-carboxamide]",< 10,< 10,< 10
"NC(=O)c1nc(-c2c(F)cccc2F)oc1Nc1ccc(C2=NNC(=O)C2)cc1 [Example Q-32, 2-(2,6-difluorophenyl)-5-(4-(5-oxo-4,5-dihydro-1H-pyrazol-3-yl)phenylamino)oxazole-4-carboxamide]",< 10,< 10,< 10
"NC(=O)c1nc(-c2c(F)cccc2F)oc1Nc1ccc(C(=O)N2CCC[C@@H]2CO)cc1 [Example U-12, (R)-2-(2,6-difluorophenyl)-5-(4-(2-(hydroxymethyl)pyrrolidine-1-carbonyl)phenylamino)oxazole-4-carboxamide]",< 10,< 10,< 10
"NC(=O)c1nc(-c2c(F)cccc2F)oc1-c1ccc(OCCN2CCC(C(N)=O)CC2)cc1 [Example S-10, 1-(2-(4-(4-carbamoyl-2-(2,6-difluorophenyl)oxazol-5-yl)phenoxy)ethyl)piperidine-4-carboxamide]",< 10,< 10,< 10
"NC(=O)c1nc(-c2c(F)cccc2F)oc1Nc1ccc(-n2cncn2)cc1 [Example Q-30, 5-(4-(1H-1,2,4-triazol-1-yl)phenylamino)-2-(2,6-difluorophenyl)oxazole-4-carboxamide]",< 100,< 10,< 10
"NC(=O)c1nc(Nc2cnn(Cc3ccccc3)c2)oc1-c1ccc(N2CCNCC2)cc1 [Example R-17, 2-(1-benzyl-1H-pyrazol-4-ylamino)-5-(4-(piperazin-1-yl)phenyl)oxazole-4-carboxamide]",< 10,< 10,< 10
"NC(=O)c1nc(-c2c(F)cccc2F)oc1Nc1ccc(N2CCCNCC2)cc1 [Example Q-15, 5-(4-(1,4-diazepan-1-yl)phenylamino)-2-(2,6-difluorophenyl)oxazole-4-carboxamide]",< 10,< 10,< 10
"CC(C)(C)OC(=O)NCC1CN(C(=O)c2ccc(Nc3oc(-c4c(F)cccc4F)nc3C(N)=O)cc2)CCO1 (stereo not drawn) [Example U-22, tert-butyl (4-(4-(4-carbamoyl-2-(2,6-difluorophenyl)oxazol-5-ylamino)benzoyl)morpholin-2-yl)methylcarbamate]",< 10,< 10,< 10
"CN(CCO)CCOc1ccc(-c2oc(-c3c(F)cccc3F)nc2C(N)=O)cc1 [Example S-8, 2-(2,6-difluorophenyl)-5-(4-(2-((2-hydroxyethyl)(methyl)amino)ethoxy)phenyl)oxazole-4-carboxamide]",< 10,< 10,< 10
"CN1CCN(C(=O)c2ccc(Nc3oc(-c4c(F)cccc4F)nc3C(N)=O)cc2)CC1CO (stereo not drawn) [Example U-25, 2-(2,6-difluorophenyl)-5-(4-(2-(hydroxymethyl)-1-methylpiperazine-4-carbonyl)phenylamino)oxazole-4-carboxamide]",< 10,< 10,< 10
"NC(=O)c1nc(-c2c(F)cccc2F)oc1Nc1ccc(C(=O)N2CCC[C@H]2CO)cc1 [Example U-13, (S)-2-(2,6-difluorophenyl)-5-(4-(2-(hydroxymethyl)pyrrolidine-1-carbonyl)phenylamino)oxazole-4-carboxamide]",< 10,< 10,< 10
"COc1ccc(-c2oc(Nc3ccccc3F)nc2C(N)=O)cc1 [Example R-8, 2-(2-fluorophenylamino)-5-(4-methoxyphenyl)oxazole-4-carboxamide]",< 10,< 10,< 10
"CN(C)C(=O)c1ccc(Nc2oc(-c3c(F)cccc3F)nc2C(N)=O)cc1 [Example Q-20, 2-(2,6-difluorophenyl)-5-(4-(dimethylcarbamoyl)phenylamino)oxazole-4-carboxamide]",< 10,< 10,< 10
"NC(=O)c1nc(-c2c(F)cccc2F)oc1Nc1ccc(S(N)(=O)=O)cc1 [Example Q-25, 2-(2,6-difluorophenyl)-5-(4-(sulfonamide)phenylamino)oxazole-4-carboxamide]",< 10,< 10,< 10
"NC(=O)c1nc(-c2c(F)cccc2F)oc1-c1ccc(OCC(O)CN2CCCCC2)cc1 (stereo not drawn) [Example T-1, 2-(2,6-difluorophenyl)-5-(4-(2-hydroxy-3-(piperidin-1-yl)propoxy)phenyl)oxazole-4-carboxamide]",< 10,< 10,< 10
"NC(=O)c1nc(-c2c(F)cccc2F)oc1Nc1ccc(OC2CCNCC2)cc1 [Example Q-16, 2-(2,6-difluorophenyl)-5-(4-(piperidin-4-yloxy)phenylamino)oxazole-4-carboxamide]",< 10,< 10,< 10
"NC(=O)c1nc(-c2c(F)cccc2F)oc1Nc1ccc(C(=O)N2CCCCC2CO)cc1 (stereo not drawn) [Example U-14, 2-(2,6-difluorophenyl)-5-(4-(2-(hydroxymethyl)piperidine-1-carbonyl)phenylamino) oxazole-4-carboxamide]",< 10,< 10,< 10
"NC(=O)c1nc(-c2ccccc2F)oc1-c1ccc(N2CCNCC2)cc1 [Example G-4, 2-(2-fluorophenyl)-5-(4-(piperazin-1-yl)phenyl)oxazole-4-carboxamide]",< 10,< 10,< 10
"NC(=O)c1nc(-c2c(F)cccc2F)oc1Nc1ccc(C(=O)N2CCCC(O)C2)cc1 (stereo not drawn) [Example U-15, 2-(2,6-difluorophenyl)-5-(4-(3-hydroxypiperidine-1-carbonyl)phenylamino)oxazole-4-carboxamide]",< 10,< 10,< 10
"CN1CCN(C(=O)Nc2ccc(Nc3oc(-c4c(F)cccc4F)nc3C(N)=O)cc2)CC1 [Example V-2, N-(4-(4-carbamoyl-2-(2,6-difluorophenyl)oxazol-5-ylamino)phenyl)-4-methyl piperazine-1-carboxamide]",< 10,< 10,< 10
"NC(=O)c1nc(-c2c(F)cccc2F)oc1-c1ccc(OCCN2CCC(O)CC2)cc1 [Example S-4, 2-(2,6-difluorophenyl)-5-(4-(2-(4-hydroxypiperidin-1-yl)ethoxy)phenyl)oxazole-4-carboxamide]",< 100,< 10,< 10
"NC(=O)c1nc(-c2c(F)cccc2F)oc1-c1ccc(OCC(O)CN2CCOCC2)cc1 (stereo not drawn) [Example T-2, 2-(2,6-difluorophenyl)-5-(4-(2-hydroxy-3-morpholinopropoxy)phenyl)oxazole-4-carboxamide]",< 10,< 10,< 10
"NC(=O)c1nc(-c2c(F)cccc2F)oc1-c1ccc(COCCN2CCOCC2)cc1 [Example F-12, 2-(2,6-difluorophenyl)-5-(4-((2-morpholinoethoxy)methyl)phenyl)oxazole-4-carboxamide]",< 100,< 10,< 10
